Data on one substance can be found in patent US20210108199A1, “Treatment for aggressive cancers by targeting C9ORF72” (The Trustees of Columbia University in the City of New York, priority 2017, published 2021).

Holding throughout (type): cell-based
In one data set the test system is C9. Kind of data set: C9 knock down efficiency by western blot. Particulars: U87 cells, vs control siRNA. Here is the method: For siRNA knockdown experiments, siRNAs targeting C9 mRNA were designed with the Whitehead website (sirna.wi.mit.edu) and with RNAxs webserver (rna.tbi.univie.ac.at/cgi-bin/RNAxs). All siRNAs were obtained from GenePharma™. Lipofectamine RNAiMAX (Thermo Scientific™) was used as the transfection reagent for all siRNA experiments (according to the manufacturer's instructions). siRNA concentration was 40 nM per 60 mm plate. After 6 hours, media was changed and cells were treated again with siRNA after 48 hours. For RNA and protein analysis, cells were harvested after 48 hours following the second treatment. All KD experiments were performed in three biological replicates. The siRNA sequences were as follows: […] (SEQ ID NO:631; sense) and […] […]
For Western blot analysis, cells were lysed with lysis buffer (20 mM sodium phosphate (pH 7.0), 250 mM NaCl, 30 mM sodium pyrophosphate, 0.1% Nonidet™ P-40, 5 mM EDTA, 10 mM NaF, 0.1 mM Na3VO4, and 1 mM PMSF) supplemented with complete protease inhibitors (Roche™) and homogenized by passage through a 28 gauge needle. Protein concentration was measured with a Bio-Rad™ protein assay dye reagent and results were read using a spectrophotometer (BiophotometerPlus™ by Eppendorf™). […] Quantitation of blots was performed Image Studio Lite software (LI-COR Biosciences™). […]
On the technique in general: In western blotting, separated proteins are transferred to a membrane and probed.

Data set [1] has as its system U87 cells. Nature of the data set: ptfLC3 fluorescent autophagy marker imaging. Particulars: U87 cells transfected with ptfLC3. As to the method: Cells were plated on coverslips in 60-mm culture dishes, and after 48 hours washed twice with PBS followed by incubation with 4% paraformaldehyde (Sigma™) for 20 minutes. Cells then were washed three times with PBS, incubated with PBS/0.5% Triton™ X-100 for 1½ minutes, washed once with PBS and then blocked with 0.5% bovine serum albumin (Sigma™) in PBS for 30 minutes at room temperature before treatment with 100 μL of the diluted primary antibodies (1:1000) for 1 hour at room temperature. The coverslips were then washed three times with PBS and stained by incubation with 100 μL of diluted (1:100) secondary antibody (1:100). The coverslips were then washed three times with PBS and mounted on coverslips with a mounting media containing DAPI stain (Vectashield™, H-1200). Coverslips were imaged at room temperature (about 22° C.) using 40×, 1.3 NA or 63×, 1.4 NA oil immersion lenses on a confocal microscope (LSM 700; Carl Zeiss™).
To this end, C9 was knocked down in U87 cells and employed a fluorescent autophagy marker ptfLC3 to mark autophagosomes and autophagolysosomes. […] The white arrows show vacuoles and the white box represents a zoom in of the cell area with vacuoles. […] The white box here represents a zoom in of the cell area with vacuoles, nuclei stained with DAPI (blue). FIG. 4B is a WB showing LAMP1 levels after control (siCtrl) and C9 KD (siC9; SEQ ID NO:631).

The subject of data set [2] is U87 cells. Nature of the data set: Dextran measurement of macropinocytosis. Particulars: fluorescein dextran. As to the method:
U87 cells were treated with control and C9 siRNA for a total of 3 days. At day 2, cells were treated with a final concentration of 20 μM dextran and incubased overnight. On day 3, cells were washed with phenol red-free DMEM and then imaged using excitation/emission for fluorescein (494/521) on an LSM 700; Carl Zeiss™ microscope.
In this study, a fluid phase marker, fluorescein dextran, was added to the media. If the vacuoles are macropinosomes, the marker will be taken up and internalized, resulting in green fluorescent macropinocytosis.
The right images are a merge between the left and middle images. The scale bar represents 10 μm. White arrows indicate the position of vacuoles. In FIG. 8, the upper panels are fluorescent images (Alexa™ 488) of U87 cells treated with control (siCtrl) and C9 (siC9; SEQ ID NO:631) siRNA as indicated incubated in fluorescein dextran (green). The lower panels are the same cells imaged in phase contrast.

A further data set has as its system γ-H2AX. Nature of the data set: γ-H2AX western blot and foci quantitation. The conditions noted are these: U87 cells. As to the method:
Cells were treated with control and C9 siRNA for three days. Cells then were fixed and stained as described in the as described above with p-H2AX(S139, #25575) antibody. For a DNA damage positive control, 0.5 μM doxorubicin hydrochloride (Sigma™, D151510MG) was used for 24 hours before imaging. Cells were then imaged using LSM 700 Carl Zeiss™. To quantify p-H2AX foci we used a publicly available software FoCo™ as described previously.
To further confirm the presence of DNA damage upon C9 KD, the DNA damage marker γ-H2AX was used as a probe on C9 KD. […] Immunofluorescence was used to image and quantitate γ-H2AX foci in control, C9 KD and doxorubicin-treated U87 cells.
FIG. 25A is a WB showing γ-H2AX and ubiquitinated γ-H2AX, control (siCtrl) and C9 KD (siC9; SEQ ID NO:631), with loading of control actin. FIG. 25B is a set of IF images of U87 cells stained for γ-H2AX (green). FIG. 25C is a graph quantitating about 90 cells (from three biological replicates) for γ-H2AX foci per cell between control (siCtrl) C9 KD (siC9) and DOX-treated U87 cells. Statistical significance was assessed by an unpaired t-test: NS P>0.05, *P≤0.05, **P≤0.01, ***P≤0.001 ****P≤0.0001.

In the case of “siC9: siRNA targeting C9 mRNA: UUAAUGAAACAAUAAUCACUC (SEQ ID NO:631; sense) and GUGAUUAUUGUUUCAUUAAUC (SEQ ID NO:632; antisense) (listed as RNA, chemistry not given here)”, the “C9 expression (western blot)” value in the data set with C9 is on record as “reduced expression compared to control”. In the data set on U87 cells [1], the “LC3 staining of vacuoles” value was “not stained by LC3” and the fluorescence of autophagolysosomes entry is reported as “increase fluorescence”. Moreover, the dextran in vacuoles entry in the data set on U87 cells [2] was “formation of vacuoles filled with dextran”. Besides, the “γ-H2AX levels (western blot)” value with γ-H2AX is reported as “increased γ-H2AX levels”. In the data set on γ-H2AX (immunofluorescence), the “γ-H2AX foci per cell” value is on record as “significant increase in γ-H2AX foci”.
